Measurements: ChEMBL document CHEMBL1201862, “PubChem BioAssay data set” (2004)
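A five-concentration, 48-hour dose response in 96-well plates underlies each endpoint, interpolated linearly between surrounding concentrations. At the GI50, growth is halved.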 Activity calls are given as the source filed them. No stated cut-off is given here; in the data, active = GI50 up to about 1.1 µM and inactive = higher.

Assays:
Test in all cases: inhibition of tumour cell growth, NCI panel, 48 h
Hs-578T = system: Hs-578T
SR = system: SR
UACC-62 = system: UACC-62
Malme-3M = system: Malme-3M
RXF 393 = system: RXF 393
K562 = system: K562
RPMI-8226 = system: RPMI-8226
DU-145 = system: DU-145
UACC-257 = system: UACC-257
SNB-19 = system: SNB-19
TK-10 = system: TK-10
SN12C = system: SN12C
SK-MEL-2 = system: SK-MEL-2
EKVX = system: EKVX
SF-268 = system: SF-268
COLO 205 = system: COLO 205
ACHN = system: ACHN
NCI-H23 = system: NCI-H23
HT-29 = system: HT-29
NCI-H460 = system: NCI-H460

Measured: GI50

CC1(C)OC(C(C)(C)O)C(C(C)(C)O)O1 (stereo not given)
inactive: Hs-578T > 100 µM | SR > 100 µM | UACC-62 > 100 µM | Malme-3M > 100 µM | RXF 393 39 µM | K562 > 100 µM | RPMI-8226 > 100 µM | DU-145 > 100 µM | UACC-257 > 100 µM | SNB-19 > 100 µM | TK-10 > 100 µM | SN12C > 100 µM | SK-MEL-2 > 100 µM | EKVX > 100 µM | SF-268 > 100 µM | COLO 205 > 100 µM | ACHN > 100 µM | NCI-H23 > 100 µM | HT-29 > 100 µM | NCI-H460 > 100 µM

CCOC(=O)C(NC(=O)CC(C)C)(Nc1ccc(S(=O)(=O)Nc2nc(C)cc(C)n2)cc1)C(F)(F)F (stereo not given)
inactive: Hs-578T > 100 µM | SR > 100 µM | UACC-62 > 100 µM | Malme-3M > 100 µM | RXF 393 > 100 µM | K562 > 100 µM | RPMI-8226 > 100 µM | DU-145 > 100 µM | UACC-257 > 100 µM | SNB-19 > 100 µM | TK-10 > 100 µM | SN12C > 100 µM | SK-MEL-2 > 100 µM | EKVX > 100 µM | SF-268 > 100 µM | COLO 205 > 100 µM | ACHN > 100 µM | NCI-H23 > 100 µM | HT-29 > 100 µM | NCI-H460 > 100 µM

C/C(=C1/N=C(c2ccccc2)OC1=O)c1ccc(C)cc1
inactive: Hs-578T > 100 µM | SR > 100 µM | UACC-62 > 100 µM | Malme-3M > 100 µM | RXF 393 > 100 µM | K562 > 100 µM | RPMI-8226 74.1 µM | DU-145 > 100 µM | UACC-257 > 100 µM | SNB-19 > 100 µM | TK-10 > 100 µM | SN12C > 100 µM | SK-MEL-2 > 100 µM | EKVX > 100 µM | SF-268 > 100 µM | COLO 205 > 100 µM | ACHN > 100 µM | NCI-H23 > 100 µM | HT-29 > 100 µM | NCI-H460 > 100 µM

CC(C)NC1(C(N)=O)CCN(Cc2ccccc2)CC1
inactive: Hs-578T > 100 µM | SR > 100 µM | UACC-62 > 100 µM | Malme-3M > 100 µM | RXF 393 > 100 µM | K562 > 100 µM | RPMI-8226 > 100 µM | DU-145 > 100 µM | UACC-257 > 100 µM | SNB-19 > 100 µM | TK-10 > 100 µM | SN12C > 100 µM | SK-MEL-2 > 100 µM | EKVX > 100 µM | SF-268 > 100 µM | COLO 205 > 100 µM | ACHN > 100 µM | NCI-H23 > 100 µM | HT-29 > 100 µM | NCI-H460 > 100 µM

CC(C)(O)/C=C\P(C)(=O)c1ccccc1 (stereo not given)
inactive: Hs-578T > 100 µM | SR > 100 µM | UACC-62 > 100 µM | Malme-3M > 100 µM | RXF 393 > 100 µM | K562 > 100 µM | RPMI-8226 39.4 µM | DU-145 > 100 µM | UACC-257 > 100 µM | SNB-19 > 100 µM | TK-10 > 100 µM | SN12C > 100 µM | SK-MEL-2 > 100 µM | EKVX > 100 µM | SF-268 > 100 µM | COLO 205 > 100 µM | ACHN > 100 µM | NCI-H23 > 100 µM | HT-29 > 100 µM | NCI-H460 > 100 µM

C/C(=N\Nc1nc2ccccc2o1)c1ccc2ccccc2n1
inactive: Hs-578T 27.4 µM | UACC-62 3.8 µM | Malme-3M 4.21 µM | RXF 393 18.5 µM | K562 3.67 µM | RPMI-8226 2.69 µM | DU-145 4.41 µM | UACC-257 6.71 µM | SNB-19 8.26 µM | TK-10 6.92 µM | SN12C 3.42 µM | SK-MEL-2 1.73 µM | SF-268 5.06 µM | COLO 205 3.85 µM | ACHN 1.47 µM | NCI-H23 8.75 µM | HT-29 1.89 µM | NCI-H460 3.7 µM
active: SR 0.579 µM | EKVX 0.458 µM
